Earlier results in patent US20080015265A1, “Methods of treating obesity using satiety factors” (priority 2006, published 2008).
Where two headings read alike, the source gives them in different places. Where no end group is shown, it is not given here.

What was measured:
[1] = for food intake: several species including humans
[2] = species not stated
[3] = for food intake (feeding) / weight gain: rats and/or mice
[4] = human subjects; peripheral or intravenous administration

For neuropeptide Y, the food intake (animals) is listed as “stimulate food intake”.

In the case of “bombesin [bombesin or bombesin-like peptide]”, the food intake [1] is given as “Feed suppression”.

In the case of “motilin (FVPIFTYGELQRMQEKERNKGQ; Motilin; UniProt P12872 26-47, looked up) [polypeptide hormone secreted by Mo cells of the small intestine]”, the gastrointestinal motility [2] is given as “increase the gastrointestinal motility”.

In the case of “pancreatic peptide (APLEPVYPGDNATPEQMAQYAADLRRYINMLTRPRY; ends and bridges not checked; UniProt P01298 30-65, looked up) [PP, 36-amino acid peptide of the NPY family produced in the pancreatic islets]”, the “food intake (feeding)” value [3] is listed as “reduces food intake”, the weight gain [3] is listed as “reduces food intake and weight gain” and the food intake [4] is listed as “sustained decrease in appetite and food intake”. The hunger / appetite [4] was “sustained decrease in appetite”.

For “galanin-like peptide (APAHRGRGGWTLNSAGYLLGPVLHLPQMGDQDGKRETALEILDLWKAIDGLPYSHPPQPS; Galanin-like peptide; UniProt Q9UBC7 25-84, looked up)”, the “food intake (feeding)” value [3] is listed as “stimulate food intake”.

In the case of “neuropeptide B (WYKPAAGHSSYSVGRAAGLLSGLRRSPYA; Neuropeptide B-29; UniProt Q8NG41 25-53, looked up) [ligand for orphan G protein-coupled receptors]”, the food intake (animals) is listed as “stimulate food intake”.

For neurotensin, the food intake [2] is given as “decrease food intake”.

In the case of leptin, the “body weight (weight loss / weight gain)” value [2] is listed as “decrease food intake and body weigh” and the food intake [2] is listed as “decrease food intake”.

For “neuropeptide K (DADSSIEKQVALLKALYGHGQISHKRHKTDSFVGLM; ends and bridges not checked; UniProt P20366 72-107, looked up)”, the food intake (animals) is listed as “inhibit food intake”.

In the case of oxytocin, the food intake (animals) is given as “increase food intake”.

In the case of β casomorphin, the food intake (animals with a high fat diet) is given as “increase food intake” and the food intake (animals with a low fat diet) is given as “decrease food intake”.

In the case of “vasopressin (CYFQNCPRG; ends and bridges not checked; cysteine pairing not given here; UniProt P01185 20-28, looked up)”, the food intake (animals) is given as “reduce food intake”.

For obestatin, the jejunal contraction ([3]; rats) is listed as “inhibited jejunal contraction”, the “food intake (feeding)” value [3] is listed as “suppressed food intake” and the weight gain [3] is listed as “decreased body weigh gain”.

For “amylin (KCNTATCATQRLANFLVHSSNNFGAILSSTNVGSNTY; not fully specified (C-terminus, bridges); cysteine pairing not given here; UniProt P10997 34-70, looked up) [37 amino acid peptide released by the β cells of the pancreas]”, the “body weight (weight loss / weight gain)” value [2] is listed as “sustained weigh loss” and the food intake [2] is listed as “decreased food intake”.

For “Glucagon-like peptide-1 (7-36)-amide (HAEGTFTSDVSSYLEGQAAKEFIAWLVKGR-NH2; UniProt P01275 98-127, looked up) [GLP-1]”, the food intake [4] is listed as “reduce food intake” and the hunger / appetite [4] is listed as “suppress hunger”.

For “galanin (GWTLNSAGYLLGPHAVGNHRSFSDKNGLTS; Galanin; UniProt P22466 33-62, looked up)”, the “food intake (feeding)” value [3] is given as “stimulate food intake”.

In the case of `C=CC1=C(C)c2cc3[nH]c(cc4nc(cc5[nH]c(cc1n2)c(C)c5CCC(=O)O)C(CCC(=O)O)=C4C)c(C)c3C=C` [protoporphyrin], the “body weight (weight loss / weight gain)” value [2] is listed as “decrease food intake and body weight” and the food intake [2] is listed as “decrease food intake”.

In the case of beacon, the food intake (animals) is listed as “stimulate food intake” and the weight gain (animals) is listed as “stimulate food intake and weight gain”.

In the case of PYY3-36, the “food intake (feeding)” value [3] is listed as “inhibits food intake”, the weight gain [3] is listed as “reduced weigh gain” and the food intake [4] is listed as “significant food intake reduction”.

For “corticotropin-releasing hormone (SEEPPISLDLTFHLLREVLEMARAEQLAQQAHSNRKLMEII; ends and bridges not checked; UniProt P06850 154-194, looked up)”, the food intake (animals) is given as “reduce food intake”.

For “ghrelin (GSSFLSPEHQRVQQRKESKKPPAKLQPR; ends and bridges not checked; also: octanoyl acylation; UniProt Q9UBU3 24-51, looked up) [28 amino acid acylated peptide produced mainly by the stomach]”, the body weight ([1]; rodents and persons) is given as “increase body weight”, the fat oxidation ([1]; rodents and persons) is given as “reducing fat oxidation” and the food intake [1] is given as “stimulating food intake”.

In the case of `CC[C@H](C)[C@H](NC(=O)[C@@H]1CCCN1C(=O)CNC(=O)[C@H](Cc1ccccc1)NC(=O)[C@H](CC(N)=O)NC(=O)[C@H](CC(N)=O)NC(=O)[C@H](CO)NC(=O)[C@H](CO)NC(=O)[C@H](Cc1c[nH]cn1)NC(=O)[C@@H](NC(=O)[C@H](CC(C)C)NC(=O)[C@H](Cc1ccccc1)NC(=O)[C@H](CC(N)=O)NC(=O)[C@H](C)NC(=O)[C@H](CC(C)C)NC(=O)[C@H](CCCNC(=N)N)NC(=O)[C@H](CCC(N)=O)NC(=O)[C@@H](NC(=O)[C@H](C)NC(=O)[C@@H]1CSSC[C@H](NC(=O)[C@@H](N)CCCCN)C(=O)N[C@@H](CC(N)=O)C(=O)N[C@@H]([C@@H](C)O)C(=O)N[C@@H](C)C(=O)N[C@@H]([C@@H](C)O)C(=O)N1)[C@@H](C)O)C(C)C)C(=O)N[C@@H](CC(C)C)C(=O)N1CCC[C@H]1C(=O)N1CCC[C@H]1C(=O)N[C@H](C(=O)N[C@@H](CC(N)=O)C(=O)N[C@H](C(=O)NCC(=O)N[C@@H](CO)C(=O)N[C@@H](CC(N)=O)C(=O)N[C@H](C(=O)N[C@@H](Cc1ccc(O)cc1)C(N)=O)[C@@H](C)O)C(C)C)[C@@H](C)O` [pramlintide, reference compound], the “body weight (weight loss / weight gain)” value [2] is given as “sustained weigh loss” and the food intake [2] is given as “decreased food intake”.

In the case of “urocortin (DNPSLSIDLTFHLLRTLLELARTQSQRERAEQNRIIFDSV; ends and bridges not checked; UniProt P55089 83-122, looked up)”, the “food intake (feeding)” value [3] is given as “reduces feeding” and the drinking ([3]; rats, infused) is given as “reduces feeding and drinking”.

In the case of “growth hormone-releasing hormone (YADAIFTNSYRKVLGQLSARKLLQDIMSRQQGESNQERGARARL; ends and bridges not checked; UniProt P01286 32-75, looked up)”, the “body weight (weight loss / weight gain)” value [2] is listed as “stimulate food intake and weight gain” and the food intake [2] is listed as “stimulate food intake”.

For prolactin-releasing peptide, the food intake (animals) is given as “increase food intake”.

For enterostatin, the dietary fat preference ([3]; mammals, demonstrated in rodent studies) is listed as “reduce dietary fat preference”.

For “oxyntomodulin (HSQGTFTSDYSKYLDSRRAQDFVQWLMNTKRNRNNIA; Oxyntomodulin; UniProt P01275 53-89, looked up) [37 amino acid peptide, product of the proglucagon gene]”, the energy intake ([1]; administered to rodents and humans) is given as “reduce energy intake”.

For “somatostatin (AGCKNFFWKTFTSC; ends and bridges not checked; cysteine pairing not given here; UniProt P61278 103-116, looked up)”, the food intake (animals) is given as “reduce food intake”.

In the case of “NPW: ligand for orphan G protein-coupled receptors (WYKHVASPRYHTVGRAAGLLMGL; Neuropeptide W-23; UniProt Q8N729 33-55, looked up)”, the food intake (animals) is listed as “stimulate food intake”.

In the case of hypocretins/orexins, the appetite ([3]; rats) is given as “stimulate appetite” and the “food intake (feeding)” value [3] is given as “stimulate appetite and food intake”.

For dynorphin, the food intake (animals) is given as “stimulate food intake”.

For `O=C1N[C@@H](Cc2cnc[nH]2)C(=O)N2CCC[C@@H]12` [cyclo-his-pro], the food intake [2] is given as “reduce food intake”.

B1: ciliary neurotrophic factor (protein, UniProt P26441 1-200, looked up)
Ciliary neurotrophic factor: MAFTEHSPLTPHRRDLCSRSIWLARKIRSDLTALTESYVKHQGLNKNINLDSADGMPVASTDQWSELTEAERLQENLQAYRTFHVLLARLLEDQQVHFTPTEGDFHQAIHTLLLQVAAFAYQIEELMILLEYKIPRNEADGMPINVGDGGLFEKKLWGLKVLQELSQWTVRSIHDLRFISSHQTGIPARGSHYIANNKKM
For B1, the “body weight (weight loss / weight gain)” value [2] is given as “cause weigh loss”.

B2: apolipoprotein A-IV (protein, UniProt P06727 21-396, looked up)
Apolipoprotein A-IV: EVSADQVATVMWDYFSQLSNNAKEAVEHLQKSELTQQLNALFQDKLGEVNTYAGDLQKKLVPFATELHERLAKDSEKLKEEIGKELEELRARLLPHANEVSQKIGDNLRELQQRLEPYADQLRTQVSTQAEQLRRQLTPYAQRMERVLRENADSLQASLRPHADELKAKIDQNVEELKGRLTPYADEFKVKIDQTVEELRRSLAPYAQDTQEKLNHQLEGLTFQMKKNAEELKARISASAEELRQRLAPLAEDVRGNLRGNTEGLQKSLAELGGHLDQQVEEFRRRVEPYGENFNKALVQQMEQLRQKLGPHAGDVEGHLSFLEKDLRDKVNSFFSTFKEKESQDKTLSLPELEQQQEQQQEQQQEQVQMLAPLES
notes: non-gut peptide satiety factor
For B2, the food intake (animals) is listed as “dose dependent reduction of food intake”.

B3: adiponectin (protein, UniProt Q15848 19-244, looked up)
Adiponectin: ETTTQGPGVLLPLPKGACTGWMAGIPGHPGHNGAPGRDGRDGTPGEKGEKGDPGLIGPKGDIGETGVPGAEGPRGFPGIQGRKGEPGEGAYVYRSAFSVGLETYVTIPNMPIRFTKIFYNQQNHYDGSTGKFHCNIPGLYYFAYHITVYMKDVKVSLFKKDKAMLFTYDQYQENNVDQASGSVLLHLEVGDQVWLQVYGEGERNGLYADNDNDSTFTGFLLYHDTN
notes: as for B2
In the case of B3, the “sensitivity of the hepatocyte to insulin” value (hepatocyte) is given as “increase the sensitivity of the hepatocyte to insulin”.

B4: nesfatin (protein, UniProt P80303 25-106, looked up)
Nesfatin-1: VPIDIDKTKVQNIHPVESAKIEPPDTGLYYDEYLKQVIDVLETDKHFREKLQKADIEEIKSGRLSKELDLVSHHVRTKLDEL
modifications: Nesfatin-1
notes: produced by the brain
In the case of B4, the food intake (animals) is listed as “reduce food intake in a dose-dependent manner”.

B5: cholecystokinin (peptide, UniProt P06307 21-115, looked up)
Cholecystokinin: QPVPPADPAGSGLQRAEEAPRRQLRVSQRTDGESRAHLGALLARYIQQARKAPSGRMSIVKNLQNLDPSHRISDRDYMGWMDFGRRSAEEYEYPS
notes: gut peptide released mainly in response to dietary fat
For B5, the food intake [1] is listed as “dose-dependent inhibition of food intake”.
